In ChEMBL document CHEMBL1143176, “Design, synthesis, and biological activity of piperidine diamine derivatives as factor Xa inhibitor” (Bioorg Med Chem Lett, 2008):
Converted amounts (≈) assume the structure as drawn.

Legend:
[1] = Solubility in japanese pharmacopoeia second fluid at pH 6.8; assay type: physicochemical
[2] = Metabolic stability assessed as intrinsic clearance in human liver microsome; assay type: ADME; details: liver microsomes
[3] = tested on: Plasma; test: Anticoagulant activity in human plasma assessed as concentration required to double prothrombin time; assay type: functional
[4] = Metabolic stability assessed as half life in human liver microsome; assay type: ADME; details: liver microsomes
[5] = target: Coagulation factor X (Homo sapiens, UniProt P00742); test: Inhibition of human factor 10a
[6] = tested on: Rattus norvegicus; test: Ex vivo inhibition of factor 10a in Wistar rat plasma at 10 mg/kg, po after 0.5 hrs; assay type: functional
[7] = tested on: Rattus norvegicus; test: Ex vivo inhibition of factor 10a in Wistar rat plasma at 10 mg/kg, po after 1 hr; assay type: functional
[8] = tested on: Rattus norvegicus; test: Ex vivo inhibition of factor 10a in Wistar rat plasma at 10 mg/kg, po after 2 hrs; assay type: functional
[9] = tested on: Rattus norvegicus; test: Ex vivo inhibition of factor 10a in Wistar rat plasma at 10 mg/kg, po after 4 hrs; assay type: functional
[10] = AUC (0 to 24 hrs) in monkey at 1.0 mg/kg, po; assay type: ADME, organism-based, Macaca mulatta; set-up: time < 24 hr, dose 1 mg/kg, route oral; details: rhesus monkey, plasma
[11] = Cmax in monkey at 1.0 mg/kg, po; assay type: ADME, organism-based, Macaca mulatta; set-up: dose 1 mg/kg, route oral; details: rhesus monkey, in vivo
[12] = Tmax in monkey at 1.0 mg/kg, po; assay type: ADME, organism-based, Macaca mulatta; set-up: dose 1 mg/kg, route oral; details: rhesus monkey, in vivo

Coagulation factor X, sequence (P00742 41-179 limits assumed): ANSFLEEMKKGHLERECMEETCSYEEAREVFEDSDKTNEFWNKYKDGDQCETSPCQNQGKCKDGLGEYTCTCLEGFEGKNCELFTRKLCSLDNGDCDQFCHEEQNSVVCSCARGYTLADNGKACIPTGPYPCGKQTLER
Coagulation factor X, sequence (P00742 235-488 limits assumed): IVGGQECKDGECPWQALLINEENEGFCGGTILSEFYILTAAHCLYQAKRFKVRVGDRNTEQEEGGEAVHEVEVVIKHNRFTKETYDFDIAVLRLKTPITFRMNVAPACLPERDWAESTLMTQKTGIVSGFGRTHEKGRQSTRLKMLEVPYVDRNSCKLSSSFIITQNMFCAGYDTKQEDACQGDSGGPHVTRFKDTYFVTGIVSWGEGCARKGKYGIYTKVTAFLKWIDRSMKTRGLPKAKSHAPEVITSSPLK

Row | SMILES | solubility [1] [µg/mL] | CLint scaled [2] [mL/min/kg] | Activity [3] [µM] | half-life [4] [min] | IC50 [5] [nM] | further results
1 | CN1CCc2nc(C(=O)NC3CCCCC3NC(=O)c3cc4cc(Cl)ccc4[nH]3)sc2C1 (racemic) | 17 (≈ 36 µM) | 81 | 4.4 | 7.7 | – | –
2 | CN1CCc2nc(C(=O)N[C@@H]3CCCC[C@@H]3NC(=O)c3cc4cc(Cl)ccc4[nH]3)sc2C1 | 16 (≈ 33.9 µM) | 97.2 | – | 6.42 | – | –
3 | CN1CCc2nc(C(=O)NC3CCN(S(C)(=O)=O)CC3NC(=O)c3cc4cc(Cl)ccc4[nH]3)sc2C1 (racemic) | 70 (≈ 127 µM) | – | 8 | – | 45 | –
4 | CN1CCc2nc(C(=O)NC3CN(S(C)(=O)=O)CCC3NC(=O)c3cc4cc(Cl)ccc4[nH]3)sc2C1 (racemic) | 103 (≈ 187 µM) | – | 2.5 | – | 28 | –
5 | CN1CCc2nc(C(=O)NC3CN(C(=O)NC(C)(C)C)CCC3NC(=O)c3cc4cc(Cl)ccc4[nH]3)sc2C1 (racemic) | – | 99.9 | – | 6.24 | – | –
6 | CN1CCc2nc(C(=O)NC3CN(C(=O)OC(C)(C)C)CCC3NC(=O)c3cc4cc(Cl)ccc4[nH]3)sc2C1 (racemic) | 3 (≈ 5.23 µM) | 140 | 3.5 | 4.44 | 10 | –
7 | CN1CCc2nc(C(=O)NC3CNCCC3NC(=O)c3cc4cc(Cl)ccc4[nH]3)sc2C1 (racemic) | 996 (≈ 2110 µM) | – | 1.3 | – | 62 | –
8 | CN1CCc2nc(C(=O)N[C@@H]3CN(C(=O)N(C)C)CC[C@@H]3NC(=O)c3cc4cc(Cl)ccc4[nH]3)sc2C1 | 56 (≈ 103 µM) | – | – | – | – | inhibition in vivo at 10 mg/kg [6]: 80.2%; inhibition in vivo at 10 mg/kg [7]: 78.6%; inhibition in vivo at 10 mg/kg [8]: 73.7%; inhibition in vivo at 10 mg/kg [9]: 68.1%
9 | CN1CCc2nc(C(=O)NC3CN(C(=O)CO)CCC3NC(=O)c3cc4cc(Cl)ccc4[nH]3)sc2C1 (racemic) | – | 41.4 | – | 15.1 | – | –
10 | CCOC(=O)N1CCC(NC(=O)c2nc3c(s2)CN(C)CC3)C(NC(=O)c2cc3cc(Cl)ccc3[nH]2)C1 (racemic) | 37 (≈ 67.9 µM) | – | 11 | – | 110 | –
11 | CN1CCc2nc(C(=O)NC3CCN(C(=O)OC(C)(C)C)CC3NC(=O)c3cc4cc(Cl)ccc4[nH]3)sc2C1 (racemic) | < 1 | – | 6.2 | – | 130 | –
12 | CC(C)C(=O)N1CC[C@H](NC(=O)c2cc3cc(Cl)ccc3[nH]2)[C@H](NC(=O)c2nc3c(s2)CN(C)CC3)C1 | 66 (≈ 122 µM) | – | 1.1 | – | 5.6 | –
13 | CN1CCc2nc(C(=O)N[C@@H]3CCCC[C@@H]3NC(=O)c3cc4cc(Cl)ccc4[nH]3)sc2C1.Cl | – | – | – | – | – | AUC(0-t) at 24 h [10]: 56.6 ng·h/mL; Cmax [11]: 23.3 ng/mL; Tmax [12]: 120 min
14 | CC(=O)N1CCC(NC(=O)c2nc3c(s2)CN(C)CC3)C(NC(=O)c2cc3cc(Cl)ccc3[nH]2)C1 (racemic) | 290 (≈ 563 µM) | – | 5.8 | – | 48 | –
15 | CN1CCc2nc(C(=O)N[C@@H]3CN(CC(=O)O)CC[C@@H]3NC(=O)c3cc4cc(Cl)ccc4[nH]3)sc2C1 | 723 (≈ 1360 µM) | – | 1.8 | – | 26 | –
16 | CN1CCc2nc(C(=O)N[C@@H]3CN(C(=O)NC(C)(C)C)CC[C@@H]3NC(=O)c3cc4cc(Cl)ccc4[nH]3)sc2C1 | 39 (≈ 68.2 µM) | – | 0.78 | – | 4.8 | –

Row | SMILES | solubility [1] [µg/mL] | CLint scaled [2] [mL/min/kg] | Activity [3] [µM] | half-life [4] [min] | IC50 [5] [nM] | further results
17 | CCC(=O)N1CCC(NC(=O)c2cc3cc(Cl)ccc3[nH]2)C(NC(=O)c2nc3c(s2)CN(C)CC3)C1 (racemic) | – | 103 | – | 6.08 | – | –
18 | COCC(=O)N1CC[C@H](NC(=O)c2cc3cc(Cl)ccc3[nH]2)[C@H](NC(=O)c2nc3c(s2)CN(C)CC3)C1.Cl | – | – | – | – | – | AUC(0-t) at 24 h [10]: 83.6 ng·h/mL; Cmax [11]: 36.4 ng/mL; Tmax [12]: 72 min
19 | COC(=O)CN1CC[C@H](NC(=O)c2cc3cc(Cl)ccc3[nH]2)[C@H](NC(=O)c2nc3c(s2)CN(C)CC3)C1 | 28 (≈ 51.4 µM) | – | 2.1 | – | 56 | –
20 | COCC(=O)N1CCC(NC(=O)c2cc3cc(Cl)ccc3[nH]2)C(NC(=O)c2nc3c(s2)CN(C)CC3)C1 (racemic) | – | 45.9 | – | 13.6 | – | –
21 | CN1CCc2nc(C(=O)NC3CCNCC3NC(=O)c3cc4cc(Cl)ccc4[nH]3)sc2C1 (racemic) | 830 (≈ 1750 µM) | – | >20 | – | 530 | –
22 | CN1CCc2nc(C(=O)NC3CN(C(=O)N(C)C)CCC3NC(=O)c3cc4cc(Cl)ccc4[nH]3)sc2C1 (racemic) | – | 92.7 | – | 6.73 | – | –
23 | CCC(=O)N1CC[C@H](NC(=O)c2cc3cc(Cl)ccc3[nH]2)[C@H](NC(=O)c2nc3c(s2)CN(C)CC3)C1 | 160 (≈ 302 µM) | – | 0.78 | – | 9 | –
24 | CC(C)C(=O)N1CCC(NC(=O)c2cc3cc(Cl)ccc3[nH]2)C(NC(=O)c2nc3c(s2)CN(C)CC3)C1 (racemic) | – | 98.1 | – | 6.36 | – | –
25 | CCOC(=O)N1CCC(NC(=O)c2cc3cc(Cl)ccc3[nH]2)C(NC(=O)c2nc3c(s2)CN(C)CC3)C1 (racemic) | 43 (≈ 78.9 µM) | 138 | 1.4 | 4.53 | 4.5 | –
26 | CN1CCc2nc(C(=O)N[C@@H]3CN(C(=O)CO)CC[C@@H]3NC(=O)c3cc4cc(Cl)ccc4[nH]3)sc2C1 | 410 (≈ 772 µM) | – | 0.9 | – | 9.3 | inhibition in vivo at 10 mg/kg [6]: 0.76%; inhibition in vivo at 10 mg/kg [7]: -2%; inhibition in vivo at 10 mg/kg [8]: -2.5%; inhibition in vivo at 10 mg/kg [9]: -7.3%
27 | CCNC(=O)N1CCC(NC(=O)c2cc3cc(Cl)ccc3[nH]2)C(NC(=O)c2nc3c(s2)CN(C)CC3)C1 (racemic) | – | 86.4 | – | 7.22 | – | –
28 | COCC(=O)N1CC[C@H](NC(=O)c2cc3cc(Cl)ccc3[nH]2)[C@H](NC(=O)c2nc3c(s2)CN(C)CC3)C1 | 510 (≈ 936 µM) | – | 0.78 | – | 5.8 | inhibition in vivo at 10 mg/kg [6]: 68%; inhibition in vivo at 10 mg/kg [7]: 50%; inhibition in vivo at 10 mg/kg [8]: 38%; inhibition in vivo at 10 mg/kg [9]: 16%
29 | CCNC(=O)N1CC[C@H](NC(=O)c2cc3cc(Cl)ccc3[nH]2)[C@H](NC(=O)c2nc3c(s2)CN(C)CC3)C1 | 220 (≈ 404 µM) | – | 0.8 | – | 7.8 | inhibition in vivo at 10 mg/kg [6]: 16.7%; inhibition in vivo at 10 mg/kg [7]: 11.4%; inhibition in vivo at 10 mg/kg [8]: 5.3%; inhibition in vivo at 10 mg/kg [9]: 4.3%
30 | CC(=O)N1CCC(NC(=O)c2cc3cc(Cl)ccc3[nH]2)C(NC(=O)c2nc3c(s2)CN(C)CC3)C1 (racemic) | 421 (≈ 817 µM) | 95.4 | – | 6.54 | – | –
31 | COCCN1CC[C@H](NC(=O)c2cc3cc(Cl)ccc3[nH]2)[C@H](NC(=O)c2nc3c(s2)CN(C)CC3)C1 | 130 (≈ 245 µM) | – | 3.8 | – | 47 | –
